Test: Stability of chlorhexidine in simplified formulations by HPLC-UV after storage at 60°C
Assay type: physicochemical
Details: result in words; formulations with arginine versus without, 60°C for 42 days
Protocol: The following simplified formulations were used for these studies: […]
The stability of the formulations was measured by HPLC-UV after storage at 60°C for 42 days. The formulations were stored in PET bottles with PP caps.
Compositions 1-4 include arginine as a stabilising agent. […] In particular, compositions 1-4 and compositions 5-7 differ only in the presence or absence of arginine.

N=C(N)NCCCC(N)C(=O)O (stereo not shown) [arginine, 2-amino-5-guanidinopentanoic acid]
stability of the chlorhexidine: improved the stability

Reference: patent publication EP3697380B1, “ORAL CARE PREPARATIONS COMPRISING CHLORHEXIDINE AND ARGININE OR THEIR SALTS” (priority 2019, dated 2020)
